Like-named read-outs stand apart in the source and are kept apart here. Where a SMILES comes first, the peptide text is derived from it.
Key:
[1] = % Viability non-Wnt responsive cells
[2] = target: Wnt-responsive promoter (TCF/LEF); assay: Wnt-dependent luciferase reporter assay; format: cell-based, murine
Procedure, shortened: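 EC50 (uM) derived from inhibition of luminescence in Wnt3a-stimulated murine 3T3 cells expressing luciferase under a TCF/LEF promoter, with peptides added across a concentration range and vehicle as control.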

β-catenin = target: T1, β-catenin (Homo sapiens, UniProt P35222); assay: KD50 measurement using competitive fluorescence polarization (FP) with labelled TCF4; format: binding; conditions: fluorescence polarization, β-catenin
T1 sequence (P35222 1-781): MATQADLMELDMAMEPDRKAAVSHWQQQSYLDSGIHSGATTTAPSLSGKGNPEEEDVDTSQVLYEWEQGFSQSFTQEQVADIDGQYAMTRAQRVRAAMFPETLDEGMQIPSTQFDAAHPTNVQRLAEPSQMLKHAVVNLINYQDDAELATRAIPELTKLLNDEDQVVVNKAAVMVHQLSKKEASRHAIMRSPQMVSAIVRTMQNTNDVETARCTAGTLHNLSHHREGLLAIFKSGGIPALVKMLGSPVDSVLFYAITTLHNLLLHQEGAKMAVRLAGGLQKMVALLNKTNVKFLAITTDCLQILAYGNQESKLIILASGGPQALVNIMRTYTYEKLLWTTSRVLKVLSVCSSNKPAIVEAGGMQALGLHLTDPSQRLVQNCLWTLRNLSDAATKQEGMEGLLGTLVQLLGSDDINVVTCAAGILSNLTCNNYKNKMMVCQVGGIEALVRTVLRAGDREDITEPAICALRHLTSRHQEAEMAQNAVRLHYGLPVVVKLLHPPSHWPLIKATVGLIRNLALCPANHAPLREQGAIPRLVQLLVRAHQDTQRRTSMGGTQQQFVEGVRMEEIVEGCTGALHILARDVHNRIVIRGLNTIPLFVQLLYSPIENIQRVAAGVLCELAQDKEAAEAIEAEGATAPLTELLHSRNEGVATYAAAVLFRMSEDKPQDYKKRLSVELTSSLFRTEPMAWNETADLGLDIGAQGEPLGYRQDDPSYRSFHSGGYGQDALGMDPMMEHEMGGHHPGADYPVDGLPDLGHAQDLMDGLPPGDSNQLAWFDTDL
Procedure, shortened: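 Each compound competes against labelled TCF4 (5 nM) for 100 nM β-catenin at room temperature, tested over 10 nM to 30 uM. Signal: polarization at 470/520 nm excitation/emission. Three repeat experiments were performed.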

Structure (SMILES)	viability [1] [%]	EC50 [2] [µM]	Kd (β-catenin; read-out: β-Cat FP KD) [µM]	β-Cat FP Hill slope (β-catenin)	Kd (β-catenin; β-Cat FP KD) [µM]
CC[C@H](C)[C@@H]1NC(=O)[C@H](CC(C)C)NC(=O)[C@H](Cc2ccccc2)NC(=O)[C@H](Cc2c[nH]c3ccccc23)N(C)C(=O)[C@H](CCSC)NC(=O)[C@H](CCCNC(=N)N)NC(=O)[C@H]([C@@H](C)CC)NC(=O)[C@H](CCSC)NC(=O)[C@@H](N)CCCCNC(=O)CCCCCCCNC(=O)CNC(=O)[C@H](Cc2c[nH]c3ccccc23)NC(=O)[C@H](Cc2ccccc2)NC(=O)[C@H](CO)NC1=O [compound 21] (HELM PEPTIDE1{K.M.I.R.M.[meW].F.L.I.S.F.W.G.[O=C(CCCCCCCN[*:1])[*:2]]}$PEPTIDE1,PEPTIDE1,1:R3-14:R2$$$V2.0)	98.7	> 30	> 30	–	–
CC[C@H](C)[C@@H]1NC(=O)[C@H](CC(C)C)NC(=O)[C@H](Cc2ccc(O)cc2)NC(=O)[C@H](Cc2c[nH]c3ccccc23)NC(=O)[C@H](CCSC)NC(=O)[C@H](CCCNC(=N)N)NC(=O)[C@H](CO)NC(=O)[C@H](CCSC)NC(=O)[C@@H](N)CCCCNC(=O)[C@H](Cc2c[nH]c3ccccc23)NC(=O)[C@H](Cc2ccccc2)NC(=O)[C@H](CO)NC1=O [compound 31] (HELM PEPTIDE1{K.M.S.R.M.W.Y.L.I.S.F.W}$PEPTIDE1,PEPTIDE1,1:R3-12:R2$$$V2.0; bridges inferred)	89	> 30	–	–	–
CC[C@H](C)[C@@H]1NC(=O)[C@H](CC(C)C)NC(=O)[C@H](Cc2ccc(O)cc2)NC(=O)[C@H](Cc2c[nH]c3ccccc23)NC(=O)[C@H](CCSC)NC(=O)[C@H](CCCNC(=N)N)NC(=O)[C@H](CO)NC(=O)[C@@H](N)CCCCNC(=O)[C@H](Cc2c[nH]c3ccccc23)NC(=O)[C@H](Cc2ccccc2)NC(=O)[C@H](CO)NC1=O [compound 32] (HELM PEPTIDE1{K.S.R.M.W.Y.L.I.S.F.W}$PEPTIDE1,PEPTIDE1,1:R3-11:R2$$$V2.0)	93	> 30	> 30	–	–
CC[C@H](C)[C@H](NC(=O)[C@H](CC(C)C)NC(=O)[C@H](Cc1ccccc1)NC(=O)[C@H](Cc1c[nH]c2ccccc12)NC(=O)[C@H](CCSC)NC(=O)[C@H](CCCNC(=N)N)NC(=O)[C@H](CO)NC(=O)[C@@H](N)CCSC)C(=O)N[C@@H](CO)C(=O)N[C@@H](Cc1ccccc1)C(=O)N[C@@H](Cc1c[nH]c2ccccc12)C(=O)NCC(=O)O [compound 41] (H-MSRMWFLISFWG-OH)	96.1	< 7.5	> 30	–	–
CC[C@H](C)[C@H](NC(=O)[C@H](CC(C)C)NC(=O)[C@H](Cc1ccccc1)NC(=O)[C@H](Cc1c[nH]c2ccccc12)NC(=O)[C@H](CCSC)NC(=O)[C@H](CCCNC(=N)N)NC(=O)[C@H](CO)NC(=O)[C@@H](N)CCSC)C(=O)N[C@@H](CO)C(=O)N[C@@H](Cc1ccccc1)C(=O)N[C@@H](Cc1c[nH]c2ccccc12)C(=O)N[C@H](C(=O)NCC(=O)O)[C@@H](C)O [compound 44] (H-MSRMWFLISFWTG-OH)	102	15 to 22.5	–	–	–
CC[C@H](C)[C@H](NC(=O)[C@H](CC(C)C)NC(=O)[C@H](Cc1ccccc1)NC(=O)[C@H](Cc1c[nH]c2ccccc12)NC(=O)[C@@H](N)CCSC)C(=O)N[C@@H](CO)C(=O)N[C@@H](Cc1ccccc1)C(=O)N[C@@H](Cc1c[nH]c2ccccc12)C(=O)N(C)[C@@H](C)C(=O)NCC(=O)O [compound 45] (HELM PEPTIDE1{M.W.F.L.I.S.F.W.[meA].G}$$$$V2.0)	101	< 7.5	0.4 to 1	0.9	–
CC[C@H](C)[C@H](NC(=O)[C@H](CC(C)C)NC(=O)[C@H](Cc1ccccc1)NC(=O)[C@H](Cc1c[nH]c2ccccc12)NC(=O)[C@H](CCSC)NC(=O)[C@H](CCCNC(=N)N)NC(=O)[C@H](CO)NC(=O)[C@@H](N)CCSC)C(=O)N[C@@H](CS)C(=O)N[C@@H](Cc1ccccc1)C(=O)N[C@@H](Cc1c[nH]c2ccccc12)C(=O)NCC(=O)O [compound 46] (H-MSRMWFLICFWG-OH)	101	< 7.5	–	–	–
CC[C@H](C)[C@H](NC(=O)[C@H](CC(C)C)NC(=O)[C@H](Cc1ccccc1)NC(=O)[C@H](Cc1c[nH]c2ccccc12)NC(=O)[C@@H](N)CCSC)C(=O)N[C@@H](CO)C(=O)N[C@@H](Cc1ccccc1)C(=O)N[C@@H](Cc1c[nH]c2ccccc12)C(=O)N[C@@H](CCC(=O)O)C(=O)NCC(=O)O [compound 47] (H-MWFLISFWEG-OH)	103	< 7.5	0.4 to 1	2.29	–
CC[C@H](C)[C@H](NC(=O)[C@H](CC(C)C)NC(=O)[C@H](Cc1ccccc1)NC(=O)[C@H](Cc1c[nH]c2ccccc12)NC(=O)[C@@H](NC(=O)[C@H](CCCNC(=N)N)NC(=O)[C@H](CO)NC(=O)[C@@H](N)CCSC)[C@@H](C)O)C(=O)N[C@@H](CO)C(=O)N[C@@H](Cc1ccccc1)C(=O)N[C@@H](Cc1c[nH]c2ccccc12)C(=O)NCC(=O)O [compound 48] (H-MSRTWFLISFWG-OH)	101	7.5 to 15	> 30	–	–
CC[C@H](C)[C@H](NC(=O)[C@H](CC(C)C)NC(=O)[C@@H](NC(=O)[C@H](Cc1c[nH]c2ccccc12)NC(=O)[C@H](CCSC)NC(=O)[C@H](CCCNC(=N)N)NC(=O)[C@H](CO)NC(=O)[C@@H](N)CCSC)[C@@H](C)CC)C(=O)N[C@@H](CO)C(=O)N[C@@H](Cc1ccccc1)C(=O)N[C@@H](Cc1c[nH]c2ccccc12)C(=O)NCC(=O)O [compound 51] (H-MSRMWILISFWG-OH)	98.5	7.5 to 15	–	–	–
CC[C@H](C)[C@H](NC(=O)[C@H](CC(C)C)NC(=O)[C@H](Cc1ccccc1)NC(=O)[C@H](Cc1c[nH]c2ccccc12)NC(=O)[C@@H](N)CCSC)C(=O)N[C@@H](CS)C(=O)N[C@@H](Cc1ccccc1)C(=O)N[C@@H](Cc1c[nH]c2ccccc12)C(=O)N(C)CC(=O)O [compound 213] (HELM PEPTIDE1{M.W.F.L.I.C.F.W.[Sar]}$$$$V2.0)	112	–	1 to 10	–	–
CC[C@H](C)[C@H](NC(=O)[C@H](CC(C)C)NC(=O)[C@@H](NC(=O)[C@H](Cc1c[nH]c2ccccc12)NC(=O)[C@H](CCSC)NC(C)=O)[C@@H](C)CC)C(=O)N[C@@H](CO)C(=O)N[C@@H](Cc1ccccc1)C(=O)N[C@@H](Cc1c[nH]c2ccccc12)C(=O)N(C)CC(=O)O [compound 221] (HELM PEPTIDE1{[ac].M.W.I.L.I.S.F.W.[Sar]}$$$$V2.0)	101	–	< 0.4	–	–
CC[C@H](C)[C@@H]1NC(=O)[C@@H](NC(=O)[C@H](CCC(N)=O)NC(=O)[C@H](C)N(C)C(=O)[C@H](Cc2c[nH]c3ccccc23)NC(C)=O)CCCCNC(=O)C[C@@H](C(=O)N[C@@H](Cc2c[nH]cn2)C(=O)N[C@H](C(=O)N[C@@H](CCC(N)=O)C(=O)N[C@@H](C)C(=O)N[C@H](C(N)=O)C(C)C)C2CCCCC2)NC(=O)[C@H](CC(N)=O)NC(=O)[C@H](CC(C)C)NC1=O [compound 452] (HELM PEPTIDE1{[ac].W.[meA].Q.K.I.L.N.D.H.[O=C([C@@H](N[*:1])C1CCCCC1)[*:2]].Q.A.V.[am]}$PEPTIDE1,PEPTIDE1,5:R3-9:R3$$$V2.0)	–	15 to 22.5	–	0.7	0.4 to 1
CCCCCCCCCCCC(=O)N[C@@H](Cc1c[nH]c2ccccc12)C(=O)N(C)[C@@H](C)C(=O)N[C@@H](CCC(N)=O)C(=O)N[C@H]1CCCCNC(=O)CC[C@@H](C(=O)N[C@@H](Cc2c[nH]cn2)C(=O)N[C@H](C(=O)N[C@H]2CCC(=O)NCCCC[C@@H](C(N)=O)NC(=O)[C@H](Cc3c[nH]c4ccccc34)NC(=O)[C@H](C(C)C)NC(=O)[C@H](CC(=O)O)NC2=O)C2CCCCC2)NC(=O)[C@H](CC(=O)O)NC(=O)[C@H](CC(C)C)NC(=O)[C@H]([C@@H](C)CC)NC1=O [compound 465] (HELM PEPTIDE1{[CCCCCCCCCCCC(=O)[*:2]].W.[meA].Q.K.I.L.D.E.H.[O=C([C@@H](N[*:1])C1CCCCC1)[*:2]].E.D.V.W.K.[am]}$PEPTIDE1,PEPTIDE1,5:R3-9:R3|PEPTIDE1,PEPTIDE1,12:R3-16:R3$$$V2.0; bridges inferred)	–	< 7.5	–	0.7	–
CC[C@H](C)[C@H](NC(=O)[C@H](CO)NC(=O)[C@H](CCC(N)=O)NC(=O)[C@@H]1CCCN1C(=O)[C@H](Cc1c[nH]c2ccccc12)NC(C)=O)C(=O)N[C@@H](CC(C)C)C(=O)N[C@@H](CC(=O)O)C(=O)N[C@H]1CCC(=O)NCCCC[C@@H](C(=O)N[C@H](C(=O)N[C@@H](Cc2c[nH]c3ccccc23)C(=O)NCC(N)=O)C(C)C)NC(=O)[C@H](CCC(N)=O)NC(=O)[C@H](C2CCCCC2)NC(=O)[C@H](Cc2c[nH]cn2)NC1=O [compound 472] (HELM PEPTIDE1{[ac].W.P.Q.S.I.L.D.E.H.[O=C([C@@H](N[*:1])C1CCCCC1)[*:2]].Q.K.V.W.G.[am]}$PEPTIDE1,PEPTIDE1,9:R3-13:R3$$$V2.0)	–	7.5 to 15	< 0.4	0.89	–
